Laboratory results from US20030109418A1, “Methods for identifying compounds for inhibition of neoplastic lesions, and pharmaceutical compositions containing such compounds” (priority 1999, published 2003).
pIC50: −log10 of the molar value. Where a name gives a salt, the structure may show the parent alone.

How the values were obtained:
[1] = tested on: β-catenin and PKG levels in SW480 cells; test: Western blot of β-catenin and PKG in SW480; format: cell-based, human
Experimental: SW480 cells treated with exisulind as described previously are harvested from the microfuge tubes by rinsing once with ice-cold PBS. The cells are lysed by modified RIPA buffer for 15 minutes with agitation. The cell lysate is spun down in a cold room. The supernatants are transferred to fresh microcentrifuge tubes immediately after spinning. BioRad DC Protein Assay (Temecula, Calif.) is performed to determine the protein concentrations in samples. The samples are normalized for protein concentration, as described above.
50 μg of each sample is loaded to 10% SDS gel. SDS-PAGE is performed, and the proteins then are transferred to a nitrocellulose membrane. The blotted nitrocellulose membrane are blocked in freshly prepared TBST containing 5% nonfat dry milk for one hour at room temperature with constant agitation.
A goat-anti-PKG primary antibody is diluted to the recommended concentration/dilution in fresh TBST/5% nonfat dry milk. The nitrocellulose membrane is placed in the primary antibody solution and incubated one hour at room temperature with agitation. The nitrocellulose membrane is washed three times for ten minutes each with TBST. […]
This observation was made by culturing SW480 cells with either 200, 400 or 600 μM exisulind or vehicle (0.1% DMSO). […] Immuno-reactive protein can be detected by Western blot. […]

[2] = tested on: new polyps in patients with adenomatous polyposis coli; test: Clinical prevention trial in APC patients; format: in vivo, human
Text: The first clinical trial involved patients with APC.
using exisulind. In that study, each patient had already had his/her colon removed, except for a small section of colon adjacent the rectum (where the small intestine was attached) to preserve rectal function. However, such a patient commonly forms polyps in the small remaining colonic section, which polyps require periodic removal (e.g., by electrocautery).
That trial where exisulind was selected was a prevention trial designed to evaluate the anti-neoplastic characteristics of the drug by comparing the cumulative number of new polyps formed over twelve months by the drug and placebo groups. Eligible patients were those who form between 9 and 44 polyps per year. Patients were fully ablated (had all polyps removed) at the start of the study, at the end of 6 months and at the end of 12 months. The study enrolled thirty-four eligible patients. […] Based on the median number of polyps produced in the first six months of the study, patients treated with exisulind developed approximately one-third the number of polyps as patients treated with placebo (median values 9 polyps/year and 26 polyps/year, respectively; p=0.013). […]

[3] = tested on: HT-29 human colon carcinoma cell line; test: Growth inhibition, SRB assay, HT-29; format: cell-based; design: Growth Inhibition: key to the marks not given beside the values
HT-29 = test: Growth inhibition, neutral red assay, HT-29; format: cell-based, human; conditions: free base, five days
Experimental: (§1) Compound I's activity is not confined to activity against colon cancer cell lines or animal models of colon cancer. It has a broad range of anti-neoplastic effects in various neoplastic cell lines. Various types of human cancer cell lines were propagated under sterile conditions in RPMI 1640 medium with 10% fetal bovine serum, 2 mM L-glutamine and sodium bicarbonate. To determine growth inhibitory effects of Compound I, cells were seeded in 96-well plates at a density of 1000 cells per well. Twenty-four hours after plating, the cells were dosed with various concentrations of the free base of Compound I solubilized in DMSO (final concentration 0.1%). The effect of the drug on tumor cell growth was determined using the neutral red cytotoxicity assay following five days of continuous treatment. Neutral red is a dye that is selectively taken up by viable cells by an ATP-dependent transport mechanism.

RPMI-8226 = test: Growth inhibition, neutral red assay, RPMI-8226; format: cell-based; conditions: Homo sapiens, HCl salt
Experimental: as §1

DU145 = test: Growth inhibition, neutral red assay, DU145; format: cell-based, human; conditions: free base, five days
Experimental: as §1

[4] = rat, in vivo
NCI-H460 = test: Growth inhibition, neutral red assay, NCI-H460; format: cell-based, human; conditions: free base, five days
Experimental: as §1

SW-620 = test: Growth inhibition, neutral red assay, SW-620; format: cell-based, human; conditions: free base, five days
Experimental: as §1

[5] = Seven-day dose-range finding study in rats; format: in vivo, rat
CCRF-CEM = test: Growth inhibition, neutral red assay, CCRF-CEM; format: cell-based; conditions: Homo sapiens, HCl salt
Experimental: as §1

SW-480 cell line = test: Growth inhibition in SW-480; format: cell-based; conditions: Homo sapiens, SW480
Experimental: The growth inhibition IC50 value obtained for Compound I was 0.7 μM in the SW-480 cell line. […] This established rodent model of azoxymethane (“AOM”)-induced carcinogenesis was used to assess the effects of Compound I (free base and salt) on colon cancer development in vivo. ACF are precursors to colonic tumors, and ACF inhibition is predictive of chemo-preventive efficacy.

## CC1=C(CC(=O)O)c2cc(F)ccc2/C1=C\c1ccc(S(C)(=O)=O)cc1 [Exisulind, 5-fluoro-2-methyl-1-(p-methylsulfonylbenzylidene)-3-indenylacetic acid]
[1]; SW480, 200, 400 or 600 μM, 48 hours, Western blot
  reduction of expression of β-catenin compared to control: 50%
[1]; SW480, 48 hours
  PKG level by Western blot: increase of PKG
[2]; entire 12 months of the study
  median number of polyps produced, entire 12 months: 18 polyps/year
[2]; first six months of the study
  median number of polyps produced, first six months: 9 polyps/year
[3]; Homo sapiens, HT-29, 144 h, six days, SRB assay, read-out: IC50, growth of HT-29 cells
  pIC50: ~3.70
[3]; Homo sapiens, HT-29, read-out: Growth-inhibitory activity, % Inhibition at 100 μM
  inhibition at 100 µM: < 50%
[3]; qualitative activity profile
  Growth Inhibition: ++

## CC1=C(CC(=O)NCc2ccccc2)c2cc(F)ccc2/C1=C\c1ccncc1 [Compound I, (Z)-5-fluoro-2-methyl-(4-pyridylidene)-3-(N-benzyl)indenylacetamide hydrochloride]
HT-29; Homo sapiens, HT-29, 120 h
  GI50: 2.1 µM
HT-29
  GI90 μM, HT-29: 8.0 µM
RPMI-8226
  GI50: 1.2 µM
DU145; Homo sapiens, DU-145, 120 h
  GI50: 1.6 µM
DU145
  GI90 μM, DU145: 2.8 µM
[4]
  signs of toxicity, single oral doses: no observable signs of toxicity
[4]; ip, 1000 mg/kg
  findings after single intraperitoneal dose: reduced body weight gain, with mesenteric adhesions seen in some animals
[4]; po, 4000 mg/kg
  body weight gain, single oral dose: body weight gains were slightly reduced
NCI-H460; Homo sapiens, NCI-H460, 120 h
  GI50: 1.9 µM
NCI-H460
  GI90 μM, NCI-H460: 30.0 µM
SW-620; Homo sapiens, SW-620, 120 h
  GI50: 1.7 µM
SW-620
  GI90 μM, SW-620: 2.5 µM
[5]; 50 mg/kg/day
  signs of toxicity, seven-day study: no observable signs of toxicity
[5]; 500 mg/kg/day
  treatment-related effects, seven-day study: increase in absolute and relative liver weights in female rats
[5]; 2000 mg/kg/day
  effects, seven-day study: labored breathing and/or abnormal respiratory sounds, decreased weights gains and food consumption in male rats, and increased liver weights in female rats
CCRF-CEM
  GI50: 1.4 µM
SW-480 cell line
  pIC50: 6.15
